Patent publication US10647680B2, “Urea compound, preparation method therefor and medical use thereof” (Ancureall Pharmaceutical (Shanghai) Co., Ltd., priority 2016, dated 2020)

Columns and labels:
[1] = system: NCI-H292 (EGFR WT); assay: In vitro growth inhibition (GI50), NCI-H292; assay type: cell-based; conditions: Homo sapiens
Description: Tumor cell line is an effective cell model for studying the inhibition of tumor cell growth or proliferation in vitro. In the present invention, a representative tumor cell line was selected to determine the cell growth inhibition activity of the present compound. All cell lines used were from ATCC, DSMZ, and the Cell Bank of the Chinese Academy of Sciences. Cell culture conditions and methods were in accordance with the requirements of each cell line. Cells were subcultured in vitro for no more than 3 passages each time, and as required, single-clone purification and identification of cell lines could be carried out.
The cell culture media used were RPMI1640 (Gibco), MEM (Gibco), McCOY'S5A (Gibco), and IMDM (Gibco). The complete medium was prepared by supplement with 5˜20% fetal calf serum (Gibco), 1% double-antibiotics (10000 units/mL penicillin and 10000 units/mL), 2 mM glutamine or 1 mM sodium pyruvate, respectively.
Human epidermal cancer cell line A431 (EGFR WT, amplification and high expression, from Shanghai Cell Bank of Chinese Academy of Sciences and ATCC), human lung cancer cell line NCI-H292 (EGFR WT, purchased from Shanghai Cell Bank of Chinese Academy of Sciences), NSCLC cell lines PC-9 and HCC827 (EGFR exon19 E746-A750 deletion, two cell lines are sensitive to the first-generation EGFR PTK inhibitor), NSCLC cell line NCI-H1975 (EGFR L858R/T790M and the first-generation EGFR inhibitor resistance, ATCC) were cultured with 1×RPMI1640 complete medium (supplement with 10% FBS), respectively.
Adherent cells were digested with 0.25% pancreatin-EDTA (Gibco). The suspension cells were collected by centrifugation. The supernatant was discarded and the cell pellet was resuspended and counted. Different cell concentrations (5˜10×10^4 cells/mL) were prepared according to the growth cycle of each cell line and then seeded on a 96-well plate (Corning), 100 μL/well. The cells were incubated overnight at 37° C., 5% CO2. The compounds were added to the cells on the second day with 2 wells in parallel. The final concentration of organic solvent shall not exceed 1%. The cells were continually incubated for 3 to 5 days, and then subjected to MTT assay.
The compound of the present invention and the control compound were dissolved in DMSO (Sigma) respectively, with the purity of more than 98%. The compound was stored in a concentration of 10 mM at −20° C. and diluted to 2- or 10-fold series prior to use.
Dojindo CCK8 reagent kit was used as MTT assay. THERMO […] FC meter was used as microplate reader.
For adherent cells, culture medium was removed and immediately replaced with the fresh prepared medium which contains 10% CCK8 reagent (100 μL/well). For the suspension cells, CCK8 was directly added to 10% of the final concentration. The cells were continually incubated for 1˜4 h. When a dark yellow color could be observed in the solvent control wells, the absorbance value at OD450 nm was measured and the cell growth rate was calculated according to the following formula: Cell Growth Rate (%)=100*(T−T0)/(C−T0) T=optical density of drug treatment cell well—optical density of blank control well; T0=optical density of cell well before drug treatment—optical density of blank control well; C=optical density of cell well of solvent control group—optical density of blank control well. The concentration value of 50% inhibition of cell growth (GI50) was calculated according to the drug concentration and cell growth rate curve. The experiment was independently repeated 1˜3 times, and subject to biological statistical analysis. 4. Experimental Results
Tumor cell growth inhibition test was performed by selecting representative compounds (compounds 4, 11, 12, 16, 27, 68, 71, 77, 79, 89 and 116 of the present invention). The initial concentration of the compound was 5,000 nM, then it was serially diluted by 2-fold or 10-fold to 0.01 nM. The GI50 value of each test compound was calculated according to the GI50 assay and calculation method. […]

[2] = system: U937 (FLT3 wild-type); assay: In vitro growth inhibition (GI50), U937; assay type: cell-based; conditions: Homo sapiens, U-937; Cell lines of leukemia; read-out: GI 50 U937 FLT 3(WT)

SMILES	GI50 [1]	GI50 [2]
CC(C)(C)c1cc(NC(=O)Nc2ccc(-n3cnc4cc(O)ccc43)cc2)no1 [Compound 4, 1-(5-tert-butyl-isoxazol-3-yl)-3-[4-(5-hydroxy-benzimidazol-1-yl)-phenyl]-urea]	> 2500 nM	100 to 1000 nM
CC(C)(C)c1cc(NC(=O)Nc2ccc(-n3cnc4cc(OCCO)ccc43)cc2)no1 [Compound 11, 1-(5-tert-butyl-isoxazol-3-yl)-3-{4-[5-(2-hydroxy-ethoxyl)-benzimidazol-1-yl]-phenyl]-urea]	> 2500 nM	> 1000 nM
CC(C)(C)c1cc(NC(=O)Nc2ccc(-n3cnc4cc(OCCN5CCOCC5)ccc43)cc2)no1 [Compound 16, 1-(5-tert-butyl-isoxazol-3-yl)-3-{4-[5-(2-morpholin-4-yl-ethoxyl)-benzimidazol-1-yl]-phenyl}-urea]	> 2500 nM	> 1000 nM
CC(C)(C)c1cc(NC(=O)Nc2ccc(-n3cnc4ccc(OCCN5CCOCC5)cc43)cc2)no1 [Compound 27, 1-(5-tert-butyl-isoxazol-3-yl)-3-{4-[6-(2morpholin-4-yl-ethoxyl)-benzimidazol-1-yl]-phenyl}-urea]	> 2500 nM	> 1000 nM
CC(C)(C)c1cc(NC(=O)Nc2ccc(-n3cnc4ccccc43)cc2)[nH]n1 [Compound 68, 1-(4-benzimidazol-1-yl-phenyl)-3-(5-tert-butyl-2H-pyrazol-3-yl)-urea]	> 2500 nM	> 1000 nM
COc1ccc2c(c1)ncn2-c1ccc(NC(=O)Nc2cc(C(C)(C)C)n[nH]2)cc1 [Compound 71, 1-(5-tert-butyl-2H-pyrazol-3-yl)-3-[4-(5-methoxyl-benzimidazol-1-yl)-phenyl]-urea]	> 2500 nM	> 1000 nM
COCCOc1ccc2c(c1)ncn2-c1ccc(NC(=O)Nc2cc(C(C)(C)C)n[nH]2)cc1 [Compound 77, 1-(5-tert-butyl-2H-pyrazol-3-yl)-3-{4-[5-(2-methoxyl-ethoxyl)-benzimidazol-1-yl]-phenyl}-urea]	> 2500 nM	> 1000 nM
CC(C)(C)c1cc(NC(=O)Nc2ccc(-n3cnc4cc(OCCO)ccc43)cc2)[nH]n1 [Compound 79, 1-(5-tert-butyl-2H-pyrazol-3-yl)-3-{4-[5-(2-hydroxy-ethoxyl)-benzimidazol-1-yl]-phenyl]urea]	> 2500 nM	> 1000 nM
CC(C)(C)c1cc(NC(=O)Nc2ccc(-n3cnc4cc(OCCN5CCOCC5)ccc43)cc2)[nH]n1 [Compound 89, 1-(5-tert-butyl-2H-pyrazol-3-yl)-3-{4-[5-(2-morpholin-4-yl-ethoxyl)-benzimidazol-1-yl]-phenyl}-urea]	> 2500 nM	> 1000 nM
CC(C)(C)c1cc(N)n(C(=O)Nc2ccc(-n3cnc4ccccc43)cc2)n1 [Compound 116, 5-amino-3-tert-butyl-pyrazol-1-carboxylic acid (4-benzimidazol-1-yl-phenyl)-amide]	> 2500 nM	> 1000 nM
